Test results reported in PubChem BioAssay AID256 (DTP/NCI, 2004).
Values joined by “and” are separate entries in the source; they are usually repeats but may differ in a detail not shown here. Equal values may be shown once. Toxic doses and inconclusive results are not listed. Rule for the calls: active = survival T/C of 150% or more; inactive = T/C below 125% in these data.

System: CD2F1 mice, L1210 leukemia ip, survival T/C
Experiment: NCI In Vivo Anticancer Drug Screen. Data for tumor model L1210 Leukemia (intraperitoneal) in CD2F1 (CDF1) mice
Conditions: higher = longer survival
Outline: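 Vehicle-treated tumor-bearing mice served as controls (C) for compound-treated mice (T). Reported figure is T divided by C.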

[1] = endpoint: mean survival time, dose: 100.0 mg/kg/injection, schedule: Q04DX003 (ip), vehicle: saline
[2] = endpoint: mean survival time, dose: 100.0 mg/kg/injection, schedule: Q01DX001 (ip), vehicle: saline with Tween-80
[3] = endpoint: mean survival time, dose: 200.0 mg/kg/injection, schedule: Q01DX001 (ip), vehicle: saline with Tween-80
[4] = endpoint: mean survival time, dose: 400.0 mg/kg/injection, schedule: Q01DX001 (ip), vehicle: saline with Tween-80
[5] = endpoint: mean survival time, dose: 100.0 mg/kg/injection, schedule: Q04DX002 (ip), vehicle: saline with Tween-80
[6] = endpoint: mean survival time, dose: 200.0 mg/kg/injection, schedule: Q04DX002 (ip), vehicle: saline with Tween-80
[7] = endpoint: mean survival time, dose: 400.0 mg/kg/injection, schedule: Q04DX002 (ip), vehicle: saline with Tween-80
[8] = endpoint: median survival time, dose: 6.25 mg/kg/injection, schedule: Q01DX009 (ip), vehicle: saline with Tween-80
[9] = endpoint: median survival time, dose: 12.5 mg/kg/injection, schedule: Q01DX009 (ip), vehicle: saline with Tween-80
[10] = endpoint: median survival time, dose: 50.0 mg/kg/injection, schedule: Q01DX009 (ip), vehicle: saline with Tween-80
[11] = endpoint: mean survival time, dose: 100.0 mg/kg/injection, schedule: Q01DX009 (ip), vehicle: saline with Tween-80
[12] = endpoint: mean survival time, dose: 100.0 mg/kg/injection, schedule: Q04DX003 (ip), vehicle: saline with Tween-80
[13] = endpoint: mean survival time, dose: 200.0 mg/kg/injection, schedule: Q01DX009 (ip), vehicle: saline with Tween-80
[14] = endpoint: mean survival time, dose: 200.0 mg/kg/injection, schedule: Q04DX003 (ip), vehicle: saline with Tween-80
[15] = endpoint: mean survival time, dose: 400.0 mg/kg/injection, schedule: Q01DX009 (ip), vehicle: saline with Tween-80
[16] = endpoint: mean survival time, dose: 400.0 mg/kg/injection, schedule: Q04DX003 (ip), vehicle: saline with Tween-80
[17] = endpoint: mean survival time, dose: 50.0 mg/kg/injection, schedule: Q01DX009 (ip), vehicle: saline with Tween-80
[18] = endpoint: mean survival time, dose: 100.0 mg/kg/injection, schedule: Q01DX001 (ip), vehicle: Klucel (hydroxypropylcellulose) (HPC)
[19] = endpoint: mean survival time, dose: 200.0 mg/kg/injection, schedule: Q01DX001 (ip), vehicle: Klucel (hydroxypropylcellulose) (HPC)

Measured: T/C

CN1CCC(CO)C1 (stereo unspecified)
inactive: endpoint: mean survival time, dose: 25.0 mg/kg/injection, schedule: Q01DX009 (ip), vehicle: water 91 % of control | endpoint: mean survival time, dose: 50.0 mg/kg/injection, schedule: Q01DX009 (ip), vehicle: saline 109 % of control | endpoint: mean survival time, dose: 50.0 mg/kg/injection, schedule: Q01DX009 (ip), vehicle: water 87 % of control | endpoint: mean survival time, dose: 100.0 mg/kg/injection, schedule: Q01DX009 (ip), vehicle: saline 101 % of control | endpoint: mean survival time, dose: 100.0 mg/kg/injection, schedule: Q01DX009 (ip), vehicle: water 87 % of control | [1] 96 % of control | endpoint: mean survival time, dose: 200.0 mg/kg/injection, schedule: Q01DX009 (ip), vehicle: saline 101 % of control | endpoint: mean survival time, dose: 200.0 mg/kg/injection, schedule: Q01DX009 (ip), vehicle: water 89 % of control | endpoint: mean survival time, dose: 200.0 mg/kg/injection, schedule: Q04DX003 (ip), vehicle: saline 97 % of control

CCN(CC)C(=O)C(C)C1CCC2C3CC=C4CC(OC(=O)c5cc([N+](=O)[O-])cc([N+](=O)[O-])c5)CCC4(C)C3CCC12C (stereo unspecified)
inactive: [2] 94 % of control | [3] 94 % of control | [4] 98 % of control

Cc1cccc(NC(=O)COc2c(C)cc(Cl)cc2Cl)c1
inactive: [5] 98 % of control | [6] 94 % of control | [7] 90 % of control

CN=C(N)N/N=C(\C)c1ccc2oc3ccc(/C(C)=N/NC(N)=NC)cc3c2c1
inactive: endpoint: median survival time, dose: 4.7 mg/kg/injection, schedule: Q01DX009 (ip), vehicle: saline with Tween-80 123 % of control | [8] 117 % of control | endpoint: median survival time, dose: 9.38 mg/kg/injection, schedule: Q01DX009 (ip), vehicle: saline with Tween-80 121 % of control | [9] 123 % of control | [10] 122 % of control | endpoint: median survival time, dose: 75.0 mg/kg/injection, schedule: Q01DX009 (ip), vehicle: saline with Tween-80 90 % of control

C[N+](C)(C)c1ccc(Cc2ccc([N+](C)(C)C)cc2)cc1
inactive: endpoint: mean survival time, dose: 6.3 micrograms/kg/injection, schedule: Q04DX002 (ip), vehicle: saline with Tween-80 101 % of control | endpoint: mean survival time, dose: 12.5 micrograms/kg/injection, schedule: Q04DX002 (ip), vehicle: saline with Tween-80 108 % of control | endpoint: mean survival time, dose: 25.0 micrograms/kg/injection, schedule: Q04DX002 (ip), vehicle: saline with Tween-80 101 % of control

COC12[C@@H](COC(N)=O)C3=C(C(=O)C(C)=C(NCCSSCCNC4=C(C)C(=O)C5=C(C4=O)C(COC(N)=O)[C@]4(OC)C6[C@@H](CN54)N6C)C3=O)N1C[C@@H]1[C@H]2N1C (stereo partly specified)
inactive: endpoint: mean survival time, dose: 6.0 mg/kg/injection, schedule: Q01DX001 (ip), vehicle: distilled water + Tween-80 114 % of control

CC(CCC(=O)O)C1CCC2C3C(O)CC4CC(O)CCC4(C)C3CC(O)C12C (stereo unspecified)
inactive: [2] 96 % of control | [3] 100 % of control | [4] 96 % of control

C#CCN(CC#C)C(=O)CCCCCCCCC=C
inactive: [11] 90 % of control | [12] 107 % of control | [13] 93 % of control | [14] 92 % of control | [15] 93 % of control | [16] 98 % of control

COC(=O)C(OC)c1ccc2ccccc2c1 (stereo unspecified)
inactive: [5] 98 % of control | [6] 98 % of control | [7] 102 % of control

Nc1cccc(N2N=C(C(=O)O)CC2=O)c1
inactive: [11] 90 % of control | [12] 103 % of control | [13] 91 % of control | [14] 103 % of control | [15] 91 % of control | [16] 101 % of control

C=CCNC(=O)C[n+]1cccc(C(=O)Nc2ccc(Cl)cc2)c1
inactive: endpoint: mean survival time, dose: 25.0 mg/kg/injection, schedule: Q01DX009 (ip), vehicle: saline with Tween-80 97 % of control | [17] 96 % of control | [11] 102 % of control | [12] 107 % of control

CC(C)(C)N/C(=C/C(=O)c1ccccc1)c1ccccc1
inactive: [12] 94 % of control | [14] 96 % of control | [16] 95 % of control

C=C(CC(=O)O)C(=O)O (tested in a mixture with another compound)
inactive: [17] 108 % of control | [11] 120 % of control | [12] 102 % of control | [13] 105 % of control | [14] 102 % of control

COC(=O)CCC(=O)C=[N+]=[N-]
inactive: endpoint: mean survival time, dose: 1.5 mg/kg/injection, schedule: Q01DX009 (ip), vehicle: other 94 % of control | endpoint: mean survival time, dose: 3.1 mg/kg/injection, schedule: Q01DX009 (ip), vehicle: other 94 % of control | endpoint: mean survival time, dose: 6.2 mg/kg/injection, schedule: Q01DX009 (ip), vehicle: other 91 % of control | endpoint: mean survival time, dose: 12.5 mg/kg/injection, schedule: Q01DX009 (ip), vehicle: other 91 % of control

CC(C)(C)N1CCCC1
inactive: endpoint: mean survival time, dose: 100.0 mg/kg/injection, schedule: Q04DX003 (ip), vehicle: acetone 96 % of control

CCOC(=O)Nc1cc(NCCc2ccccc2)c2[nH]cnc2n1
inactive: [18] 90 % of control | [19] 87 % of control | endpoint: mean survival time, dose: 400.0 mg/kg/injection, schedule: Q01DX001 (ip), vehicle: Klucel (hydroxypropylcellulose) (HPC) 95 % of control

COc1ccc(N(C)C/C(CN)=N/O)cc1
inactive: [18] 97 % of control | [19] 102 % of control

CON(C)CCOC(=O)c1ccc([N+](=O)[O-])cc1
inactive: [2] 100 % of control | [3] 107 % of control | [4] 105 % of control

Cc1ccc(S(=O)(=O)SCc2ccccc2)cc1
inactive: endpoint: mean survival time, dose: 100.0 mg/kg/injection, schedule: Q01DX009 (ip), vehicle: other 107 % of control | endpoint: mean survival time, dose: 200.0 mg/kg/injection, schedule: Q01DX009 (ip), vehicle: other 96 % of control

COc1ccc(OC)c(NC(=O)OCC(F)(F)F)c1
inactive: [17] 97 % of control | [13] 103 % of control

CN(C)CCCOc1nc2c(c(=O)n(C)c(=O)n2C)n1C (tested in a mixture with another compound)
active: endpoint: median survival time, dose: 50.0 mg/kg/injection, schedule: Q01DX009 (ip), vehicle: Klucel (hydroxypropylcellulose) (HPC) 154 % of control and 176 % of control | endpoint: median survival time, dose: 100.0 mg/kg/injection, schedule: Q01DX009 (ip), vehicle: Klucel (hydroxypropylcellulose) (HPC) 155 % of control and 185 % of control | endpoint: median survival time, dose: 200.0 mg/kg/injection, schedule: Q01DX009 (ip), vehicle: Klucel (hydroxypropylcellulose) (HPC) 172 % of control
inactive: endpoint: median survival time, dose: 6.25 mg/kg/injection, schedule: Q01DX009 (ip), vehicle: Klucel (hydroxypropylcellulose) (HPC) 111 % of control | endpoint: median survival time, dose: 12.5 mg/kg/injection, schedule: Q01DX009 (ip), vehicle: Klucel (hydroxypropylcellulose) (HPC) 116 % of control and 117 % of control

COc1cc2cc3c4cc5c(cc4cc[n+]3c(C)c2cc1OC)OCO5 (tested in a mixture with another compound)
inactive: endpoint: mean survival time, dose: 25.0 mg/kg/injection, schedule: Q04DX003 (ip), vehicle: saline 122 % of control | endpoint: mean survival time, dose: 50.0 mg/kg/injection, schedule: Q04DX003 (ip), vehicle: saline 122 % of control | [12] 92 % of control | [1] 118 % of control

O=C(Nc1ccc(OCC2=NCCN2)cc1)c1ccc(C(=O)Nc2ccc(OCC3=NCCN3)cc2)cc1
inactive: endpoint: median survival time, dose: 3.12 mg/kg/injection, schedule: Q01DX009 (ip), vehicle: saline with Tween-80 102 % of control | [8] 96 % of control | [9] 98 % of control | endpoint: median survival time, dose: 25.0 mg/kg/injection, schedule: Q01DX009 (ip), vehicle: saline with Tween-80 101 % of control | [10] 98 % of control
